Experimental data as given in patent publication US20240279232A1, “USE OF SUBSTITUTED 5-(4-METHYL-6-PHENYL-4H-BENZO[F]IMIDAZO[1,5-A][1,4] DIAZEPIN-3-YL)-1,2,4-O[…] THE TREATMENT OF INFLAMMATORY CONDITIONS” (priority 2021, published 2024).

How the values were obtained:
[1] = molecular target: Alpha2A (Homo sapiens, UniProt P08913); experiment: PDSP primary binding Alpha2A; settings: PDSP primary screening
Method: (§1) Because reduction of NO could not be reversed by GABAAR antagonists, the possible binding of MP-IV-010 to other cellular receptors was evaluated in collaboration with the NIMH Psychoactive Drug Screening Program.
(§2) Psychoactive Drug Screening Program. Detailed protocols for the primary and secondary radioligand binding assays can be found in the National Institute of Mental Health's Psychoactive Drug Screening Program (NIMH PDSP) Assay Protocol Book. Briefly, primary and secondary radioligand binding assays are carried out in a final of volume of 125 μL per well in appropriate binding buffer. The radioactive ligand concentration is close to the Kd. Total binding and nonspecific binding are determined in the absence and presence of 10 μM of appropriate reference compound, respectively. In brief, plates are usually incubated at room temperature and in the dark for 90 min. Reactions are stopped by vacuum filtration onto 0.3% polyethyleneimine (PEI) soaked 96-well filter mats using a 96-well Filtermate harvester, followed by three washes with cold PBS buffer. Scintillation cocktail is then melted onto the microwave-dried filters on a hot plate and radioactivity counted in a Microbeta counter. The data (n=6) were analyzed by nonlinear regression.

[2] = molecular target: 5-HT2C (Homo sapiens, UniProt P28335); experiment: PDSP primary binding 5-HT2C; settings: PDSP primary screening
Chain of 5-HT2C (P28335 33-458, species assumed): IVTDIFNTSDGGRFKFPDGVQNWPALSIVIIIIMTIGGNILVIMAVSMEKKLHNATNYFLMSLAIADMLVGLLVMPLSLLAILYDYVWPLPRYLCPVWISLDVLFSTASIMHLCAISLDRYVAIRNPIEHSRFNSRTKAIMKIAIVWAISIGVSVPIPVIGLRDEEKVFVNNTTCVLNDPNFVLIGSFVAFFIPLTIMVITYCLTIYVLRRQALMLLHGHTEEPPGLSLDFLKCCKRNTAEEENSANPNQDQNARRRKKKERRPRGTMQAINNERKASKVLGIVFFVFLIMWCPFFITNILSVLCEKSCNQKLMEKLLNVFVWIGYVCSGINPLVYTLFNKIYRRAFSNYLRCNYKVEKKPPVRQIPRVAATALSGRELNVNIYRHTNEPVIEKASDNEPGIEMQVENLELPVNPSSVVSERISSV
Method: as §1, §2

[3] = molecular target: α3β3γ2 GABAAR (Homo sapiens, UniProt P18507+P34903); experiment: Membrane potential red dye assay; assay type: cell-based
Chain of α3β3γ2 GABAAR (P34903 29-492): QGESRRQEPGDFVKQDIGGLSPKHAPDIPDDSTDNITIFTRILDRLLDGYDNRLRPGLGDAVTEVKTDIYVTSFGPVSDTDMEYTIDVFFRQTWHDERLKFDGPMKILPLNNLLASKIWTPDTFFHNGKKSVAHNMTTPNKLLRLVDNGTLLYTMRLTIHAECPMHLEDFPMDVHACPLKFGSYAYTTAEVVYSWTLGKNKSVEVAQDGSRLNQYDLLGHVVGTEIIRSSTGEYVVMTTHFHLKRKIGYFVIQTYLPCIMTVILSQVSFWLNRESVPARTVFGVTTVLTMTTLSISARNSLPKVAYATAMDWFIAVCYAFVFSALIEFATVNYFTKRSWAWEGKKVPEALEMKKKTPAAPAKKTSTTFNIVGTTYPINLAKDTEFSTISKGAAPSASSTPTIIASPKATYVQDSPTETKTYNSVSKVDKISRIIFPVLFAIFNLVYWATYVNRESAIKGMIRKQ
Chain of α3β3γ2 GABAAR (P28472 26-473 partner): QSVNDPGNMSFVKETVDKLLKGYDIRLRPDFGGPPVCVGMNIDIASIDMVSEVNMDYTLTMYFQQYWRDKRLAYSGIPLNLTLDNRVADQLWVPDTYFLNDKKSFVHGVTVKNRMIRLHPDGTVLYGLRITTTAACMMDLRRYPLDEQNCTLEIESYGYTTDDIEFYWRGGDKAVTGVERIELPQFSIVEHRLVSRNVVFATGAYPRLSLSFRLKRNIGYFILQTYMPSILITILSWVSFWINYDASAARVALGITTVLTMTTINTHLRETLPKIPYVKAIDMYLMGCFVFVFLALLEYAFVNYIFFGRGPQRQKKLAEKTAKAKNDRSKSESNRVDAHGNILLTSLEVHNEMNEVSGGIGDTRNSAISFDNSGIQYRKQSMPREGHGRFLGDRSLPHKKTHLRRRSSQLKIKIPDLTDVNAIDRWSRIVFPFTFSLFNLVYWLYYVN
Chain of α3β3γ2 GABAAR (P18507 40-475): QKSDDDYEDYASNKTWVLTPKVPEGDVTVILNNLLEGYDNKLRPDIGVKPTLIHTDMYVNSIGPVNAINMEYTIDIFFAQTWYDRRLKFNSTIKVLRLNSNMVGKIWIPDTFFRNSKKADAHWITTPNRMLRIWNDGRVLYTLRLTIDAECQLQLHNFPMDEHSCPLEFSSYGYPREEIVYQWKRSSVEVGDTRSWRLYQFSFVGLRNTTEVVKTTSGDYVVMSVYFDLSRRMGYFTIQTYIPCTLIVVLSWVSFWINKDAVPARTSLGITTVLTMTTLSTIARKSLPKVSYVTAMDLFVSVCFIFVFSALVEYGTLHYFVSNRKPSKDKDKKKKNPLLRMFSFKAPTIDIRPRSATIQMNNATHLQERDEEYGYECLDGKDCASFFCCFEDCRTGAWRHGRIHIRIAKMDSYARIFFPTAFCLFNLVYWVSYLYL
Method: To determine the affinity of MP-IV-010 for these receptors, concentration dependent assays were carried out as depicted in FIG. 4A-4C.

[4] = molecular target: HERG (Homo sapiens, UniProt Q12809); experiment: PDSP primary HERG binding; settings: PDSP primary screening
Chain of HERG (Q12809 whole entry): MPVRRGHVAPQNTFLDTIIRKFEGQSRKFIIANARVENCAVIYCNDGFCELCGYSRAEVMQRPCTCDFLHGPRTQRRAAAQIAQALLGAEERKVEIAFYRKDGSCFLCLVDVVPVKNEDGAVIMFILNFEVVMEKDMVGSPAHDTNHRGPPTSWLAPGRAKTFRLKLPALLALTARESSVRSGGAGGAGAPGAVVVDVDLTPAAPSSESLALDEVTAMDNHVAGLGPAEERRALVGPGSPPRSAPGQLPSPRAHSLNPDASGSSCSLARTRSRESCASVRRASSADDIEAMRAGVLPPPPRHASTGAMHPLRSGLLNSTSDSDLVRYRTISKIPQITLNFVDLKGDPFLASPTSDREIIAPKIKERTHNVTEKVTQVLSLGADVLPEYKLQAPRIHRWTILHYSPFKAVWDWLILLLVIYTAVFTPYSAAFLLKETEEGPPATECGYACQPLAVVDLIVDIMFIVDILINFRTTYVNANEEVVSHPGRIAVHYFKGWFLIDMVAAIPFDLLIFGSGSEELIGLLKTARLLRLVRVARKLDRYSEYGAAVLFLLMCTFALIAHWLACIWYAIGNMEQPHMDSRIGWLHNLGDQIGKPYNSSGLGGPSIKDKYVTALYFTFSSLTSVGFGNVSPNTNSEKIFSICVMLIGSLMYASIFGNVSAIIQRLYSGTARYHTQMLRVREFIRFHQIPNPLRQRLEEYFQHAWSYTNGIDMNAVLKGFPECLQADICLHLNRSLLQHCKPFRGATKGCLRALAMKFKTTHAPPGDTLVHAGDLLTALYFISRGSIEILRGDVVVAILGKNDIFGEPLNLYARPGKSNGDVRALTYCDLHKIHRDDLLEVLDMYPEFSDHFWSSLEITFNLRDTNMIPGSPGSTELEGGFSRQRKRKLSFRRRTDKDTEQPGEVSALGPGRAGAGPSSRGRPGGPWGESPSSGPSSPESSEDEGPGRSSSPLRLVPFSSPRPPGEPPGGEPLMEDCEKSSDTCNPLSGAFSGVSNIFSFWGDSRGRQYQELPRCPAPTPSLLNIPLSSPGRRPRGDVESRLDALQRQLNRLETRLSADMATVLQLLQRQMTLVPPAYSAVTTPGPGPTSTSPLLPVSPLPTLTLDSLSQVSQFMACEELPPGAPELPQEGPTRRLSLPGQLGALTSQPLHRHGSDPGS
Method: as §1, §2

[5] = molecular target: Beta2 (Homo sapiens, UniProt P07550); experiment: PDSP primary binding Beta2; settings: PDSP primary screening
Chain of Beta2 (P07550 whole entry): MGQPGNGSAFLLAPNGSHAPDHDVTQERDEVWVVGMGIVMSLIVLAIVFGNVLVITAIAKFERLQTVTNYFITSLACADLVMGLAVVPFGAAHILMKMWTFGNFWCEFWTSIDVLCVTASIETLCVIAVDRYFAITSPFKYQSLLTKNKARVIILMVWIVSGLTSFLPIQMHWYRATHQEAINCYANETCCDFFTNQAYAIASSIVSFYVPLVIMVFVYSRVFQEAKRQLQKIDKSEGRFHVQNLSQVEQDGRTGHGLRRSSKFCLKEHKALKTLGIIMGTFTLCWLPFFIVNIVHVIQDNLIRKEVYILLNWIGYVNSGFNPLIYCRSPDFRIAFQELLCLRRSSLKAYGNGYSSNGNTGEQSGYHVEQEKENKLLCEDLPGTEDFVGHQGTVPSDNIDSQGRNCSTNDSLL
Method: as §1, §2

[6] = molecular target: Alpha2C (Homo sapiens, UniProt P18825); experiment: PDSP primary binding Alpha2C; settings: PDSP primary screening
Chain of Alpha2C (P18825 whole entry): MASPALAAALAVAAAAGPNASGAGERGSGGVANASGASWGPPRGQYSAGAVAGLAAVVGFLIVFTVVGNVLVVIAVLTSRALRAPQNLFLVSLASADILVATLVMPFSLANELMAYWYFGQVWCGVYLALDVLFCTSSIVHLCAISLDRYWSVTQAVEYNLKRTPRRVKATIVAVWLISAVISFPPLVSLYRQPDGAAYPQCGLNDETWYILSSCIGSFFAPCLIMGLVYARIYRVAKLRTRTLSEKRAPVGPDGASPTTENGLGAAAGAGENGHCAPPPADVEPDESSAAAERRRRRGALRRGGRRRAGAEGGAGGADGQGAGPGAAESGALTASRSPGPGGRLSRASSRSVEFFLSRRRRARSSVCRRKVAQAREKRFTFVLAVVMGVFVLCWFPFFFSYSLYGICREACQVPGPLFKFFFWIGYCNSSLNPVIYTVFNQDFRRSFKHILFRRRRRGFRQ
Method: as §1, §2

[7] = system: iNOS; experiment: iNOS activity in activated microglia after compound treatment; assay type: cell-based, mouse; settings: 50 μM, treatment for 24 h
Method: The cellular proteins were isolated from mouse microglia treated with vehicle and mouse microglia activated with IFNγ/LPS and treated for 24 hours with vehicle or 50 μM MP-IV-010. The specific iNOS activity was determined with an Abcam INOS Activity Assay kit (n=4).
Next, the possible involvement of INOS in MP-IV-010 (and structurally similar compound GL-IV-03) mediated reduction of NO in activated microglia was investigated. INOS activity was measured in activated microglia after a 24-hour treatment with MP-IV-010. Second, proteins were harvested from microglia activated for 24 hours with LPS/INFγ, followed by a 2-hour treatment with MP-IV-010 before measuring iNOS activity. Finally, mRNA and protein levels were quantified for GL-IV-03 treated activated microglia to examine the transcriptional regulation of iNOS.
iNOS activity assay. Mouse microglia were activated with 50 ng/mL LPS (Invivogen, NC9836) and 150 U/mL IFNγ (R&D Systems, 485MI100), and treated with compounds of interest in 6 well plates for 2 or 24 hours. […] Protein was collected, quantified, and analyzed with the Nitric Oxide Synthase Activity kit (Abcam, ab211083) with minor alterations to the established protocol. […] Absorbance at 540 nm was measured using a TECAN Infinite M1000 plate reader. Significance (n=3) was analyzed by ANOVA.

[8] = molecular target: 5-HT1D (Homo sapiens, UniProt P28221); experiment: PDSP primary binding 5-HT1D; settings: PDSP primary screening
Method: as §1, §2

[9] = molecular target: H4 (Homo sapiens, UniProt Q9H3N8); experiment: PDSP primary binding H4; settings: PDSP primary screening
Chain of H4 (Q9H3N8 whole entry): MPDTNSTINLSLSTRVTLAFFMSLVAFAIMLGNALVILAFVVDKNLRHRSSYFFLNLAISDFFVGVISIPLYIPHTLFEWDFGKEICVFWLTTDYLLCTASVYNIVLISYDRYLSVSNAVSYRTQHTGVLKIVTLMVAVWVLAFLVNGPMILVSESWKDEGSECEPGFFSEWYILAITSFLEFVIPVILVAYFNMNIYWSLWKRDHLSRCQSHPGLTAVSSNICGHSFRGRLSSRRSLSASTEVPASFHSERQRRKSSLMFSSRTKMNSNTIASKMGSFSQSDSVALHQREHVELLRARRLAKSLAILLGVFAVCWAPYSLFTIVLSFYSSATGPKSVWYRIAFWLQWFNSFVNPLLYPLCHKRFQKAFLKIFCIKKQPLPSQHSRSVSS
Method: as §1, §2

[10] = system: Swiss Webster mice; experiment: Formalin test; assay type: in vivo, mouse; settings: orally; GL-IV-03 10 mg/kg; ketoprofen 30 mg/kg
Method: Webster mice were treated orally four days in advance with indicated compounds and doses before the injection of 2% formalin in the right hind paw. Mice were evaluated during the first 5 min (phase 1) and after 20 minutes (phase 2) for 5 minutes in 5 seconds intervals Licking and biting the right hind paw during a 5 second interval was noted and combined as total time addressing the injected paw. Data is given as mean with SEM (n =8). ** indicate p<0.01 (unpaired t-test).
The antinociceptive effect of GL-IV-03 was investigated with the formalin test. Paw injections of formalin elicited a biphasic pain response separated in time (1-5 minutes and 20-60 minutes). […] Sensorimotor impairment and sedation were investigated with mice that were trained to balance on a rotating rod over a period of three minutes (rotarod). The amount of time that mice remained balanced on the rod after intraperitoneal (i.p.) and oral (p.o.) treatment with GL-IV-03 and MP-IV-010 is summarized in FIG. 7B-7C. […] The effect was similar to non-steroidal anti-inflammatory drug ketoprofen at 30 mg/kg. Sedation and inhibition of sensorimotor coordination can influence licking and biting pain behaviors, prompting rotarod studies for GL-IV-03 and MP-IV-010. […] In contrast to diazepam, a benzodiazepine with high affinity for the α1β2/3γ2 and other GABAAR subtypes, was sedating at 5 mg/kg.
Formalin test. […]

Chain of Alpha2A (P08913 whole entry): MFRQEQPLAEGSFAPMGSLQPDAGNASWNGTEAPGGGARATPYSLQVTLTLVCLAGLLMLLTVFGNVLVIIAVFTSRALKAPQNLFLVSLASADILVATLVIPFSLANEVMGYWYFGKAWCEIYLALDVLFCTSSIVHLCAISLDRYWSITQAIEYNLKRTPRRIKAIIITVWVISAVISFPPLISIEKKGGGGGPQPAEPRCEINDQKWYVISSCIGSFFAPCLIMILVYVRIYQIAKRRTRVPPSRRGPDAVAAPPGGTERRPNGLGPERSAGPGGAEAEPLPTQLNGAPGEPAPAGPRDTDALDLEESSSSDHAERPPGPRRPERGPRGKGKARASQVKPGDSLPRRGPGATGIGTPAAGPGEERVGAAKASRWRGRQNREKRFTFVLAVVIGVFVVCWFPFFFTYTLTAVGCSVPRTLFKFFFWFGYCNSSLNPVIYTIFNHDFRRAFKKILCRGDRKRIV

C#Cc1ccc2c(c1)C(c1ccccc1F)=N[C@H](C)c1c(-c3nc(C(C)C)no3)ncn1-2 [MP-IV-010, (R)-5-(8-ethynyl-6-(2-fluorophenyl)-4-methyl-4H-benzo[f]imidazo[1,5-a][1,4]diazepin-3-yl)-3-isopropyl-1,2,4-oxadiazole]
Percent Competition Alpha2A [1]: 14%
Percent Competition 5-HT2C [2]: −2%
EC50 [3]: 14.3 µM
Percent Competition HERG binding [4]: 29%
Percent Competition Beta2 [5]: 20%
Percent Competition Alpha2C [6]: 31%
iNOS activity in activated microglia [7]: completely inhibited
Percent Competition 5-HT1D [8]: 6%
Percent Competition H4 [9]: 6%

CCc1noc(-c2ncn3c2[C@@H](C)N=C(c2ccccc2F)c2cc(C4CC4)ccc2-3)n1 [GL-IV-03, (R)-5-(8-Cyclopropyl-6-(2-fluorophenyl)-4-methyl-4H-benzo[f]imidazo[1,5-a][1,4]diazepin-3-yl)-3-ethyl-1,2,4-oxadiazole]
antinociceptive effect, formalin test (phase 1 and 2) [10]: antinociceptive effects in both acute pain (phase 1) and inflammation mediated pain (phase 2)
